Measurements as given in patent publication US11964956B2, “Cannabinergic compounds and uses thereof” (Northeastern University, priority 2012, dated 2024).
Where two headings read alike, the source gives them in different places.

Columns and labels:
rCB1 [1] = target: T1, rCB1 (Rattus norvegicus, UniProt P20272); experiment: rCB1 competition-equilibrium binding with [3H]CP-55,940, rat brain membranes; design: Frozen rat brains (CB1 source) are obtained from Pel-Freeze Biologicals; tissue Pel-Freeze Biologicals (Rogers, AK); host or cells: rat brain membranes
T1 sequence (P20272 whole entry): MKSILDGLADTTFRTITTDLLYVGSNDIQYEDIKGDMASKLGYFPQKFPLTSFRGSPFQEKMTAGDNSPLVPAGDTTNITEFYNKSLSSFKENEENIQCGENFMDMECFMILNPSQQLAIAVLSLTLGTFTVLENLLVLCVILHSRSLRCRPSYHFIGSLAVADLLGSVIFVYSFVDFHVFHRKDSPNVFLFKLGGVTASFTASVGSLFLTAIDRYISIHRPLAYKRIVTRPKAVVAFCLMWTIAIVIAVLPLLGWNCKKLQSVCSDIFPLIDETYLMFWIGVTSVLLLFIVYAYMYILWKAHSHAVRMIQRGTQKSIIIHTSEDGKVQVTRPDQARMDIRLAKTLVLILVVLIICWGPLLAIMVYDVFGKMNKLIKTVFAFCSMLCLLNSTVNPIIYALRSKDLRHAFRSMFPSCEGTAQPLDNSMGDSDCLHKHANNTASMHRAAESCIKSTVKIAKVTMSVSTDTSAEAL
Protocol: Frozen rat brains (CB1 source) are obtained from Pel-Freeze Biologicals (Rogers, AK) and stored at −80° C. until use. Membranes are prepared according to the method described by Dodd et al. and used in our laboratory as reported.
(§1) All the cannabinoids discussed in this invention are tested for their ability to bind to CB 1 and CB2 receptors using membranes from rat brain or HEK293 cells expressing either mCB2 or hCB2, respectively via competition-equilibrium binding using [^3H]CP-55,940. Results are analyzed using nonlinear regression to determine ligand IC50 (Prism by GraphPad Software, Inc.), and Ki values are calculated from the IC50. IC50 and Ki values are determined from at least three independent experiments.
(§2) Some disclosed compounds were tested for CB1 and CB2 receptor binding affinity, which can be represented by a Ki value. The Ki value is the affinity constant and describes the affinity of the compound for the receptor. […] A detailed description of the methods used to test binding affinity of compounds is given in US 2007/0135388 and in Papahatjis, et al., J. Med. Chem. (2007) 4048, the content of each of which is hereby incorporated by reference.

hCB2 = target: T2, hCB2 (Homo sapiens, UniProt P34972); experiment: hCB2 competition-equilibrium binding with [3H]CP-55,940, HEK293 membranes
T2 construct: expressed in transfected cells; host or cells: HEK293
T2 sequence (P34972 whole entry): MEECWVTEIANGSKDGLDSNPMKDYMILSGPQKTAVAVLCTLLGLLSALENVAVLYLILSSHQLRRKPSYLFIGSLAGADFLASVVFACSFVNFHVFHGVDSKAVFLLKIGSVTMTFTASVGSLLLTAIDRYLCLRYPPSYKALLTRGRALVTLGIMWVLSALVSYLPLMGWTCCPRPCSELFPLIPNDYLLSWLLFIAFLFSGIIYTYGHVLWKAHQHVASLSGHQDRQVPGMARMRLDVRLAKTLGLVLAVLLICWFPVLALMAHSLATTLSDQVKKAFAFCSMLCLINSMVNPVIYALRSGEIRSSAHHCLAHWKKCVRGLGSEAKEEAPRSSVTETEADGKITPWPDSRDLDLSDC
Protocol: (§3) HEK293 cells expressing hCB1 or hCB2 or mCB2 receptor are used for membrane preparations according to Abadji et al. The resulting pellet is resuspended in 10 mM Tris-chloride, pH 7.4, with 5 mM MgCl2 and 2 mM EDTA (TME), rapidly frozen in liquid nitrogen and stored at −80° C. for no longer than two months. Protein content is assayed by using the Bio-Rad protein assay according to the manufacturer's protocol.
as §1, §2

mCB2 = target: T3, mCB2 (Mus musculus, UniProt P47936); experiment: mCB2 competition-equilibrium binding with [3H]CP-55,940, HEK293 membranes
T3 construct: expressed in transfected cells; host or cells: HEK293
T3 sequence (P47936 whole entry): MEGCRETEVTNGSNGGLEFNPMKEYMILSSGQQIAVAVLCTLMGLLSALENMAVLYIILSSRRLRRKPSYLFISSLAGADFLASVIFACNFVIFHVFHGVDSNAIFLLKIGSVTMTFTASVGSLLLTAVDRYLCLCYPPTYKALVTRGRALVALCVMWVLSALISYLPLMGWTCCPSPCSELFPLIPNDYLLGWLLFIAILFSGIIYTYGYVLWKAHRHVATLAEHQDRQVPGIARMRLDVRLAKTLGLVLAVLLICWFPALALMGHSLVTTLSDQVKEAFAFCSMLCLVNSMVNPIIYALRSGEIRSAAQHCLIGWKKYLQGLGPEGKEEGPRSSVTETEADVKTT
Protocol: as §3, §1, §2

rCB1 [2] = target: T1, rCB1; experiment: cAMP assay, rCB1; type: cell-based; conditions: for Emax: cAMP assay
Protocol: Functional characterization of some of the disclosed compounds was performed by using the cyclic adenosine monophosphate (cAMP) assay. The functional potency of the compound in the cAMP assay is represented by the EC50 value. The lower the EC50 value, the higher the functional potency. A detailed description of the cyclic adenosine monophosphate (cAMP) assay is given in Nikas et al. J. Med. Chem. (2010) 6996, the content of which is incorporated herein by reference. Table 10 lists the EC50 values of certain compounds of Formula (Je) in the cAMP assay.

Row | SMILES | Ki (rCB1 [1]) | Ki (hCB2) | Ki (mCB2) | Ki (mCB2; HEK293 cells expressing mCB2, Tables 5-8, read-out: mCB2 Ki) | Ki (rCB1 [1]; rat brain membranes, Tables 5-8, read-out: rCB1 Ki) | EC50 (rCB1 [2]) | Emax (rCB1 [2])
1 | CCCCOC(=O)C1(c2cc(O)c3c(c2)OC(C)(C)C2CCC(=O)CC32)CCCC1 (centres unmarked) [AM8137] | 0.4 ± 0.01 nM |  |  |  |  |  | 
2 | CC1(C)Oc2cc(C3(C(=O)O)CCCC3)cc(O)c2C2CC(=O)CCC21 (centres unmarked) [AM8139] | > 1000 nM | > 1000 nM | > 1000 nM |  |  |  | 
3 | CC1=CC[C@H]2[C@@H](C1)c1c(O)cc(C(C)(C)C(=O)OCCCCC#N)cc1OC2(C)C [Compound 1.3, 4-cyanobutyl-2-((6aS, 10aR)-6a, 7, 10, 10a-tetrahydro-1-hydroxy-6,6,9-trimethyl-6H-benzo[c]chromen-3-yl)-2-methylpropanoate] |  |  |  | 0.5 nM |  |  | 
4 | CC1=CC[C@@H]2[C@@H](C1)c1c(O)cc(C(C)(C)C(=O)OCCCN3CCOCC3)cc1OC2(C)C [Compound 1.25, 3-morpholinopropyl 2-((6aR, 10aR)-1-hydroxy-6,6,9-trimethyl-6a,7, 10, 10a-tetrahydro-6H-benzo[c]chromen-3-yl)-2-methylpropanoate] |  |  | 104 nM |  |  |  | 
5 | CC(C)(C(=O)OCCCC#N)c1cc(O)c2c(c1)OC(C)(C)[C@@H]1CC=C(CO)C[C@@H]21 [Compound 2.5] | 1 nM | 1 nM | 1 nM |  |  |  | 
6 | CCCCOC(=O)C(C)(C)c1cc(O)c2c(c1)OC(C)(C)[C@@H]1CC[C@H](O)C[C@@H]21 [Compound 3.8, Butyl-2-((6aR,9S, 10aR)-6a,7,8,9, 10, 10a-hexahydro-1,9-dihydroxy-6,6-dimethyl-6H-benzo[c]chromen-3-yl)-2-methylpropanoate] |  |  | 0.6 nM |  |  |  | 
7 | CCCCCCC(C)(C)c1cc(O)c2c(c1)OC(C)(C)[C@@H]1CCOC(=O)C[C@@H]21 [Compound 3.11, (5aR, 11bR)-11-hydroxy-6,6-dimethyl-9-(2-methyloctan-2-yl)-4,5,5a,6-tetrahydro-1H-oxepino[4,5-c]chromen-2(11bH)-one] |  |  | 8 nM |  |  |  | 
8 | CCOC(=O)C(C)(C)c1cc(O)c(-c2cccc(C#N)c2)c(O)c1 [Compound 4.2, Ethyl 2-(3′-cyano-2,6-dihydroxybiphenyl-4-yl)-2-methylpropanoate] |  |  |  |  | 3.66 nM |  | 
9 | CC(C)(C(=O)OCCCI)c1cc(O)c2c(c1)OC(C)(C)[C@@H]1CCC(=O)C[C@@H]21 [Compound 7, 3-Iodopropyl-2-((6aR,10aR)-1-hydroxy-6,6-dimethyl-9-oxo-6a,7,8,9,10,10a-hexahydro-6H-benzo[c]chromen-3-yl)-2-methylpropanoate] | 0.1 ± 0.04 nM | 5.3 ± 0.9 nM | 1.2 ± 0.6 nM |  |  |  | 
10 | CC(C)(C(=O)OCCCN=C=S)c1cc(O)c2c(c1)OC(C)(C)[C@@H]1CCC(=O)C[C@@H]21 [Compound 10, 3-Isothiocyanatopropyl-2-((6aR,10aR)-1-hydroxy-6,6-dimethyl-9-oxo-6a,7,8,9,10,10a-hexahydro-6H-benzo[c]chromen-3-yl)-2-methylpropanoate] | 7.9 nM | 22 nM | 20 nM |  |  | 13.8 nM | 38%
11 | CC(C)(CC(=O)O)c1cc(O)c2c(c1)OC(C)(C)[C@@H]1CCC(=O)C[C@@H]21 [Compound 19, 3-((6aR,10aR)-1-Hydroxy-6,6-dimethyl-9-oxo-6a,7,8,9,10,10a-hexahydro-6H-benzo[c]chromen-3-yl)-3-methylbutanoic acid] | > 1000 nM | > 1000 nM | > 1000 nM |  |  |  | 
12 | COC(=O)CCC(C)(C)c1cc(O)c2c(c1)OC(C)(C)[C@@H]1CCC(=O)C[C@@H]21 [Compound 23, Methyl-4-((6aR,10aR)-1-hydroxy-6,6-dimethyl-9-oxo-6a,7,8,9,10,10a-hexahydro-6H-benzo[c]chromen-3-yl)-4-methylpentanoate] | 270 ± 34.6 nM | 560 ± 64.3 nM | 540 ± 46.7 nM |  |  |  | 
13 | CC(C)(C(=O)O)c1cc(O)c2c(c1)OC(C)(C)[C@@H]1CCC(=O)C[C@@H]21 [Compound 32, 2-[(6aR,10aR)-6a,7,8,9,10,10a-Hexahydro-1-hydroxy-6,6-dimethyl-9-oxo-6H-benzo[c]chromen-3-yl]-2-methylpropanoic acid] | > 1000 nM | > 1000 nM | > 1000 nM |  |  |  | 
14 | CCOC(=O)C(C)(C)c1cc(O)c2c(c1)OC(C)(C)[C@@H]1CCC(=O)C[C@@H]21 [Compound 34a, Ethyl 2-((6aR,10aR)-1-hydroxy-6,6-dimethyl-9-oxo-6a,7,8,9,10,10a-hexahydro-6H-benzo[c]chromen-3-yl)-2-methylpropanoate] | 36.7 ± 5.6 nM | 67.5 ± 13.4 nM | 89.7 ± 18.1 nM |  |  |  | 
15 | CCCOC(=O)C(C)(C)c1cc(O)c2c(c1)OC(C)(C)[C@@H]1CCC(=O)C[C@@H]21 [Compound 34b, Propyl 2-((6aR,10aR)-1-hydroxy-6,6-dimethyl-9-oxo-6a,7,8,9,10,10a-hexahydro-6H-benzo[c]chromen-3-yl)-2-methylpropanoate] | 4.8 ± 0.8 nM | 8.3 ± 3.1 nM | 32 ± 5.2 nM |  |  |  | 
16 | CCCCCCOC(=O)C(C)(C)c1cc(O)c2c(c1)OC(C)(C)[C@@H]1CCC(=O)C[C@@H]21 [Compound 34d, Hexyl 2-((6aR,10aR)-1-hydroxy-6,6-dimethyl-9-oxo-6a,7,8,9,10,10a-hexahydro-6H-benzo[c]chromen-3-yl)-2-methylpropanoate] | 5.9 ± 1.2 nM | 15.1 ± 2.2 nM | 30 ± 7.3 nM |  |  |  | 
17 | CCC[C@H](C)OC(=O)C(C)(C)c1cc(O)c2c(c1)OC(C)(C)[C@@H]1CCC(=O)C[C@@H]21 [Compound 34e, (S)-pentan-2-yl 2-((6aR,10aR)-1-hydroxy-6,6-dimethyl-9-oxo-6a,7,8,9,10,10a-hexahydro-6H-benzo[c]chromen-3-yl)-2-methylpropanoate] | 3 ± 0.5 nM | 12.4 ± 2.5 nM | 54 ± 10.6 nM |  |  | 2.9 nM | 58%
18 | CCC[C@@H](C)OC(=O)C(C)(C)c1cc(O)c2c(c1)OC(C)(C)[C@@H]1CCC(=O)C[C@@H]21 [Compound 34f, (R)-Pentan-2-yl 2-((6aR,10aR)-1-hydroxy-6,6-dimethyl-9-oxo-6a,7,8,9,10,10a-hexahydro-6H-benzo[c]chromen-3-yl)-2-methylpropanoate] | 4 ± 0.7 nM | 7 ± 2.1 nM | 36.4 ± 12.4 nM |  |  | 94.5 nM | 71%
19 | CCCCNC(=O)C(C)(C)c1cc(O)c2c(c1)OC(C)(C)[C@@H]1CCC(=O)C[C@@H]21 [Compound 34i, N-Butyl-2-((6aR,10aR)-1-hydroxy-6,6-dimethyl-9-oxo-6a,7,8,9,10,10a-hexahydro-6H-benzo[c]chromen-3-yl)-2-methylpropanamide] | 115 ± 21.6 nM | > 1000 nM | > 1000 nM |  |  |  | 
20 | CC(C)(C(=O)OCCCCBr)c1cc(O)c2c(c1)OC(C)(C)[C@@H]1CCC(=O)C[C@@H]21 [Compound 36, 4-Bromobutyl 2-((6aR,10aR)-1-hydroxy-6,6-dimethyl-9-oxo-6a,7,8,9,10,10a-hexahydro-6H-benzo[c]chromen-3-yl)-2-methylpropanoate] | 0.002 nM |  | 1.8 nM |  |  |  | 
21 | CC(C)(C(=O)OCCCCN=[N+]=[N-])c1cc(O)c2c(c1)OC(C)(C)[C@@H]1CCC(=O)C[C@@H]21 [Compound 37, 4-Azidobutyl 2-((6aR,10aR)-1-hydroxy-6,6-dimethyl-9-oxo-6a,7,8,9,10,10a-hexahydro-6H-benzo[c]chromen-3-yl)-2-methylpropanoate] | 1.7 nM | 1.7 nM | 4.5 nM |  |  |  | 
22 | CC(C)(C(=O)OCCCCN=C=S)c1cc(O)c2c(c1)OC(C)(C)[C@@H]1CCC(=O)C[C@@H]21 [Compound 38, 4-Isothiocyanatobutyl 2-((6aR,10aR)-1-hydroxy-6,6-dimethyl-9-oxo-6a,7,8,9,10,10a-hexahydro-6H-benzo[c]chromen-3-yl)-2-methylpropanoate] | 4.9 nM | 5.2 nM | 21.4 nM |  |  |  | 
23 | CC(C)(C(=O)OCCCCO[N+](=O)[O-])c1cc(O)c2c(c1)OC(C)(C)[C@@H]1CCC(=O)C[C@@H]21 [Compound 39, 4-(Nitrooxy)butyl 2-((6aR,10aR)-1-hydroxy-6,6-dimethyl-9-oxo-6a,7,8,9,10,10a-hexahydro-6H-benzo[c]chromen-3-yl)-2-methylpropanoate] | 0.2 nM | 2.6 nM | 2.2 nM |  |  |  | 
